Data on 15 compounds can be found in PubChem BioAssay (NCI).

Common to all, as to test: inhibition of tumour cell growth, NCI panel, 48 h
In test [1] the test system is T-47D breast.
Test [2] has as its system NCI/ADR-RES ovarian.
In test [3] the test system is NCI-H460 lung.
Test [4] relates to MCF7 breast.
Test [5] concerns SW-620 colon.
Test [6] has as its system UACC-62 melanoma.
For test [7], the system named is OVCAR-4 ovarian.
In test [8] the test system is HL-60(TB) leukemia.
Test [9] relates to IGROV1 ovarian.
Test [10] deals with HT29 colon.

“And” between values parts separate entries of the source, which are not always exact repeats. Equal entries are not always repeated.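 How tested: cells in 96-well plates exposed to compound for 48 hours at five concentrations. At the GI50, growth is halved. The concentration for full growth arrest is given as TGI.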 Where only a bound is given, the exact number is not on record here.

For the compound `Cc1cc(C)c2nc3c(c(C(O)C4CCCCN4)c2c1)CC/C3=C\c1ccc(Cl)cc1` (stereo not given), the TGI in [1], in test [2], in [3], in test [4], in test [5] and in [6] was above 100 µM in each case. Besides, the TGI is above 100 µM in test [7], 67.6 µM in test [8], above 100 µM in test [9] and above 100 µM in [10].

Take `O=c1c(I)c[nH]cc1I`: the GI50 in test [1], in [2], in [3], in [4], in test [5] and in [6] was above 100 µM throughout. Also, the GI50 in test [7] was above 100 µM; in test [8], above 100 µM; in test [9], 98.3 µM; in test [10] it was above 100 µM. Moreover, the TGI in test [1], in test [2], in [3], in test [4], in [5] and in test [6] was above 100 µM each time. The TGI in test [7], in [8], in [9] and in [10] was above 100 µM throughout.

With `CN(C)CCCN1c2ccccc2Sc2ccc(C(F)(F)F)cc21`, the GI50 was 1.4 µM in test [1]; 1.66 µM in test [2]; 1.6 µM in [3]; 1.6 µM in test [4]; 1.58 µM in test [5]; 1.46 µM in test [6]. Besides, the GI50 in test [7] was 1.97 µM; in test [8] it was 1.82 µM; in test [9], 1.67 µM; in [10] it was 1.35 µM. In addition, the TGI was 3.18 µM and 29.1 µM in test [1]; 3.42 µM and 31.1 µM in test [2]; 5.53 µM and 28 µM in test [7]; 3.31 µM and 29.3 µM and 30.1 µM in [9]; 2.82 µM and 25.3 µM in [10].

Turning to `CC(C)(O)C1COC2=C1C(=O)c1ccccc1C2=O` (stereo not given), the TGI was above 100 µM in [1]; 62.1 µM in test [2]; above 100 µM in test [3]; 40.1 µM in [4]; 50.4 µM in [5]; 42.9 µM in [6]. Besides, the TGI was above 100 µM in test [7], 44.9 µM in [8], above 100 µM in [9] and above 100 µM in test [10].

On to `O=c1ccc(N=Nc2ccccc2)ccc1O`, for which the TGI in test [1] was 42.4 µM; in [2] it was 29.6 µM; in test [3], 97.8 µM; in test [4], above 100 µM; in [5], 22.5 µM; in test [6] it was 25.4 µM. For the same compound, the TGI in test [7] was 69.1 µM; in [8], 51.2 µM; in [9], 34.6 µM; in test [10], 32.1 µM.

Regarding `CCN(CC)c1ccc(/C=N/NC(=O)Cc2ccc(Nc3ccnc(C(F)(F)F)c3)cc2)c(O)c1`, the GI50 is 0.517 µM in test [1]; 1.19 µM in test [2]; 0.351 µM in test [3]; 0.461 µM in test [4]; 0.729 µM in test [5]; 0.48 µM in test [6]. Besides, the GI50 in [7] was 0.442 µM; in [8] it was 0.301 µM; in test [9], 0.472 µM; in test [10], 0.638 µM. In addition, the TGI is above 25.1 µM in test [1]; above 100 µM in test [2]; above 39.7 µM in test [3]; above 100 µM in test [4]; above 100 µM in test [5]; 7.86 µM in test [6]. For the same compound, the TGI in test [7] was above 100 µM; in test [8], 1.62 µM; in test [9], above 22 µM; in test [10], above 68.2 µM.

Consider `Nc1ncn([C@H]2CC(O)[C@@H](CO)S2)c(=O)n1` (stereo not given in full), for which the GI50 in [1] is above 100 µM; in test [2], 0.559 µM; in test [3], 0.685 µM; in [4], 0.382 µM; in [5], 1.48 µM; in test [6] it was 8.51 µM. The GI50 in test [7] was above 100 µM; in test [8] it was 5.27 µM; in test [9], 10.2 µM; in test [10], 1.25 µM. For the same compound, the TGI in [1], in test [2], in [3], in [4], in test [5] and in test [6] was above 100 µM each time. Further, the TGI in test [7], in [8], in test [9] and in test [10] was above 100 µM throughout.

For `O=[N+]([O-])c1cccc(/C=N/Nc2ccc3ccccc3n2)c1O`, the TGI was 4.89 µM in [1]; 3.5 µM in test [2]; 7.21 µM in test [3]; 11.4 µM in test [4]; above 48.4 µM in test [5]; 20.2 µM in [6]. Besides, the TGI in [7] was above 39.6 µM; in [8], 3.13 µM; in test [9], above 42.7 µM; in test [10], 20.5 µM.

`CCCCCCCCCCCCCCCCCc1nc(Cl)nc(Cl)c1Cl`: the TGI in [1], in test [2], in test [3], in test [4], in test [5] and in test [6] was above 100 µM in each case. The TGI in test [7], in [8], in [9] and in test [10] was above 100 µM in each case.

Take `O=S(=O)(c1ccccc1)N1CCCC(c2ccccc2)CC1` (stereo not given): the TGI in test [1] was above 100 µM; in test [2] it was above 100 µM; in [3] it was above 100 µM; in test [4], 53.7 µM; in test [5] it was above 100 µM; in test [6], above 100 µM. Also, the TGI in [7] was above 100 µM; in test [8], 29.9 µM; in [9], above 100 µM; in [10] it was 42 µM.

As for `COc1cc(N=Nc2cc(Cc3ccc(N(C)C)cc3)c(N)cc2N(C)C)c2ncccc2c1`, the GI50 is 0.211 µM in test [1]; 0.338 µM in [2]; 0.519 µM in test [3]; 0.21 µM in [4]; 0.374 µM in test [5]; 0.42 µM in test [6]. The GI50 in [7] was 0.175 µM; in test [8], 0.267 µM; in test [9] it was 0.364 µM; in test [10], 0.0607 µM. In addition, the TGI turned out to be 2 µM in [1]; 1.57 µM in test [2]; 1.91 µM in test [3]; 0.855 µM in [4]; 2.16 µM in [5]; 1.83 µM in test [6]. The TGI in [7] came out at 0.549 µM; in test [8], 1.36 µM; in test [9], 1.57 µM; in test [10] it was 2.4 µM.

In the case of `O=c1cc(-c2ccccc2)oc2ccc(Cl)cc12`, the TGI in [1] was above 100 µM; in test [2], above 100 µM; in [3] it was above 100 µM; in [4], above 100 µM; in test [5], above 100 µM; in [6], above 79.4 µM. Besides, the TGI was above 96.3 µM in [7], above 46.4 µM in test [8], above 100 µM in test [9] and above 100 µM in [10].

Consider `COc1cc2ncn(-c3cc(OCc4ccccc4C(F)(F)F)c(C(N)=O)s3)c2cc1OC`, for which the GI50 in test [1] was 4.42 µM; in test [2] it was 0.15 µM; in test [3], 0.101 µM; in test [4] it was 0.0282 µM; in test [5], 0.0822 µM; in test [6] it was 0.168 µM. The GI50 in [7] is above 23.5 µM; in test [8], 0.0361 µM; in [9], 0.933 µM; in test [10], 0.0889 µM. In addition, the TGI in test [1] is above 25 µM; in test [2], above 25 µM; in [3] it was above 25 µM; in [4] it was above 25 µM; in [5] it was above 25 µM; in [6], above 8.39 µM. For the same compound, the TGI in test [7], in test [8], in [9] and in test [10] was above 25 µM each time.

For the compound `Cc1cc(NC(=O)NCc2ccc(N3C(N)=NC(N)=NC3(C)C)cc2)ccc1S(=O)(=O)F`, the GI50 is 15.7 µM in test [1]; above 100 µM in test [2]; 0.252 µM in test [3]; 1.93 µM in test [4]; 0.491 µM in test [5]; 0.998 µM in test [6]. Further, the GI50 in [7] is 9.31 µM; in test [8] it was 0.716 µM; in test [9], 0.388 µM; in [10], 0.37 µM. Also, the TGI was above 100 µM in [1]; above 100 µM in [2]; above 75.6 µM in test [3]; above 100 µM in [4]; above 100 µM in [5]; above 100 µM in test [6]. In addition, the TGI in [7] was above 100 µM; in [8], above 57.5 µM; in test [9], above 100 µM; in test [10], above 100 µM.

Take `CNC(=O)CCN1CCN(CC/C=C2\c3ccccc3Sc3ccc(Cl)cc32)CC1`: the GI50 in test [1] is 9.21 µM; in test [2], 7.08 µM; in [3] it was 7.02 µM; in [4] it was 4.91 µM; in test [5] it was 9.18 µM; in test [6], 1.92 µM. Also, the GI50 in [7] is 13.2 µM; in test [8], 4.33 µM; in [9], 15.1 µM; in test [10], 3.11 µM. Moreover, the TGI in test [1] came to 26.5 µM; in [2], 16.5 µM; in test [3], 21.6 µM; in [4], 18.9 µM; in test [5] it was 23.6 µM; in test [6] it was 3.62 µM. Besides, the TGI in [7] is 28.2 µM; in [8], above 41.1 µM; in test [9], 37.3 µM; in test [10], 12.4 µM.
